Target: PAFR (Homo sapiens, UniProt P25105)
Test: PAF Binding Assay (PAFR binding)

PAFR, sequence (P25105 whole entry): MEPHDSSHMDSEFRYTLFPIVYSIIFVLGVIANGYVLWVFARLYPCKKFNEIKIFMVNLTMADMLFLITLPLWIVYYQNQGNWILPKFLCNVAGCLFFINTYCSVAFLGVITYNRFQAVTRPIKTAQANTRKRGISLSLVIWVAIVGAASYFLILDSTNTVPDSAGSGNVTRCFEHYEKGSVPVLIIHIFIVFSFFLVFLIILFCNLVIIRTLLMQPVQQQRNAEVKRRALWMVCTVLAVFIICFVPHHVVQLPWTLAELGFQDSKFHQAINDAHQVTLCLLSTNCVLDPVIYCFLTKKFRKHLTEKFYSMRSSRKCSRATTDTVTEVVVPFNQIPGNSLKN

SMILES	IC50 [nM]
Cc1nncn1[C@H]1C[C@@H](NS(=O)(=O)c2ccc(-c3noc(C4CC4)n3)cc2)CC(F)(F)C1 [Compound 2Ql, 4-(5-cyclopropyl-1,2,4-oxadiazol-3-yl)-N-[(1R,5S)-3,3-difluoro-5-(3-methyl-4H-1,2,4-triazol-4-yl)cyclohexyl]benzenesulfonamide]	8.2
CCc1cccc(S(=O)(=O)N[C@@H]2C[C@H](n3cnnc3)CC(F)(F)C2)c1 [Compound 2Pk, N-[(1R,5S)-3,3-difluoro-5-(4H-1,2,4-triazol-4-yl)cyclohexyl]-3-ethylbenzenesulfonamide]	370
Cc1nncn1[C@@H]1CCC[C@H](NS(=O)(=O)c2ccc(C(C)(C)C)cc2)C1 [Compound 2Np, 4-tert-butyl-N-[(1S,3R)-3-(3-methyl-4H-1,2,4-triazol-4-yl)cyclohexyl]benzenesulfonamide]	51
CCc1cc(-c2ccc(OC(C(F)(F)F)C(F)(F)F)cc2)ccc1S(=O)(=O)N[C@H]1CCC[C@@H](n2cnnc2)C1 [Compound 2Aap, 3-ethyl-N-[(1S,3R)-3-(4H-1,2,4-triazol-4-yl)cyclohexyl]-4′-[2,2,2-trifluoro-1-(trifluoromethyl)ethoxy]biphenyl-4-sulfonamide]	1.7
O=S(=O)(N[C@H]1CCC[C@@H](n2cnnc2)C1)c1cc(-c2ccccc2F)cc(C(F)(F)F)c1 [Compound 3At, 2′-fluoro-N-[(1S,3R)-3-(4H-1,2,4-triazol-4-yl)cyclohexyl]-5-(trifluoromethyl)biphenyl-3-sulfonamide]	5.4
O=S(=O)(N[C@H]1CCC[C@@H](n2cnnc2)C1)c1cc(-c2cccs2)cc(C(F)(F)F)c1 [Compound 3Aas, 3-(2-thienyl)-N-[(1S,3R)-3-(4H-1,2,4-triazol-4-yl)cyclohexyl]-5-(trifluoromethyl)benzenesulfonamide]	3.8
CCOC(=O)c1cn2cc(Cl)cc(-c3cc(C(F)(F)F)cc(S(=O)(=O)N[C@H]4CCC[C@@H](n5cnnc5)C4)c3)c2n1 [Compound 3Aaw, ethyl 6-chloro-8-[3-({[(1S,3R)-3-(4H-1,2,4-triazol-4-yl)cyclohexyl]amino}sulfonyl)-5-(trifluoromethyl)phenyl]imidazo[1,2-a]pyridine-2-carboxylate]	0.5
O=S(=O)(N[C@H]1CCC[C@@H](n2cnnc2)C1)c1cc(F)cc(-c2ccccc2)c1 [Compound 3Fa, 5-fluoro-N-[(1S,3R)-3-(4H-1,2,4-triazol-4-yl)cyclohexyl]biphenyl-3-sulfonamide]	10
O=S(=O)(N[C@H]1CCC[C@@H](n2cnnc2)C1)c1cc(-c2ccnc3ccnn23)cc(C(F)(F)F)c1 [Compound 9c, 3-pyrazolo[1,5-a]pyrimidin-7-yl-N-[(1S,3R)-3-(4H-1,2,4-triazol-4-yl)cyclohexyl]-5-(trifluoromethyl)benzenesulfonamide]	5.9
CCc1cc(-c2cccc3cccnc23)ccc1S(=O)(=O)N[C@H]1CCC[C@@H](n2cnnc2)C1 [Compound 2Aae, 2-ethyl-4-quinolin-8-yl-N-[(1S,3R)-3-(4H-1,2,4-triazol-4-yl)cyclohexyl]benzenesulfonamide]	4.9
O=S(=O)(N[C@H]1CCC[C@@H](n2cnnc2)C1)c1cc(-c2cc(Cl)cn3cc(CCl)nc23)cc(C(F)(F)F)c1 [Compound 3Aav, 3-[6-chloro-2-(chloromethyl)imidazo[1,2-a]pyridin-8-yl]-N-[(1S,3R)-3-(4H-1,2,4-triazol-4-yl)cyclohexyl]-5-(trifluoromethyl)benzenesulfonamide]	22
O=S(=O)(N[C@H]1CCC[C@@H](n2cnnc2)C1)c1cc(-c2cccc(F)n2)cc(C(F)(F)F)c1 [Compound 3Ax, 3-(6-fluoropyridin-2-yl)-N-[(1S,3R)-3-(4H-1,2,4-triazol-4-yl)cyclohexyl]-5-(trifluoromethyl)benzenesulfonamide]	4.6
CCc1cc(-c2ccc(C)nc2)ccc1S(=O)(=O)N[C@H]1CCC[C@@H](n2cnnc2)C1 [Compound 2Ai, 2-ethyl-4-(6-methylpyridin-3-yl)-N-[(1S,3R)-3-(4H-1,2,4-triazol-4-yl)cyclohexyl]benzenesulfonamide]	119

Reference: patent publication US9029377B2, “Platelet-activating factor receptor antagonists” (Merck Sharp & Dohme Corp., priority 2009, dated 2015)
